The subject of assay [1] is SKOV-3 ovarian cell-line derived xenograft. As to the kind of experiment: SKOV-3 xenograft model, Compound 1 and carboplatin. Type of assay: in vivo, nude mice. The settings on record: for Tumor Volume Day 14: in mm³ (unit assumed). As for the experimental part: SKOV-3 is an ovarian cell-line derived xenograft. Ten week old female nude mice (Taconic Farms, Inc) were inoculated subcutaneously in flank (cell suspension) with 4.0×10^6 SKOV-3 cells suspended in serum free DMEM+Matrigel. When the mean tumor volume reached approximately 200 mm^3, the animals were randomized into 12 treatment groups (n=5/group).
Carboplatin (Teva Pharmaceuticals) is formulated in 0.9% saline and administered by IP injection once weekly (QW) at 25, 50, 60, and 75 mg/kg. The once weekly schedule is also described as every 7 days (Q7D).
(§1) Compound 1 [((1R,2R,3S,4R)-2,3-dihydroxy-4-(2-(3-(trifluoromethylthio)-phenyl)pyrazolo[1,5-a]pyrimidin-7-ylamino)cyclopentyl)methyl sulfamate] is formulated in 10-20% HPbCD in sterile water and administered intravenously (IV) or subcutaneously (SC) on a BIW (twice/week schedule; Monday and Thursday or Tuesday and Friday) for either 2-4 weeks.
(§2) Tumors were measured twice weekly using vernier calipers. Tumor volumes were calculated using the standard formula V=W^2×L/2,). When mean tumor volumes reached approximately 200 mm^3 for PHTX-24C, 220 mm^3 for PHTX-Lu132, 150 mm^3 for CTG-0256, 260 mm^3 for CTG-0486, 185 mm^3 for PHTX-17C, 260 mm^3 for CTG-0165, 150 mm^3 for PHTX-14B in the study of Compound 1 and paclitaxel, 180 mm^3 for PHTX-14B in the study of Compound 1 and docetaxel, 200 mm^3 for SKOV-3, 220 mm^3 for PHTX-02B in the study of Compound 1 and docetaxel, 250 mm^3 for PHTX-02B in the study of Compound 1 and paclitaxel, 195 mm^3 for CTG-0159, 180 mm^3 for CTG-0012 or 150 mm^3 for Calu-6, mice were randomized into groups of n=5-7/arm as described in the tables below, and injected with vehicle, Compound 1 or agents (docetaxel, paclitaxel, oxaliplatin, cisplatin or carboplatin), or the combination of Compound 1 plus one of the agents, at various doses and schedules as described in tables below. Tumor size and body weight were measured approximately twice a week for the duration of the study. Mice are euthanized when their tumor volume reached 10% of their body weight, or when the average tumor volume of a treatment or control group reached approximately 2000 mm^3. Tumor growth continued to be monitored after the dosing period in some studies. Average tumor volume is reported as a function of time for selected arms of selected studies in the Figures.
(§3) Measurements from day 0 to day 14, day 19, day 21, or day 28 are analyzed as specified in Tables below. All tumor volumes have a value of 1 added to them before log10 transformation. For each animal, the log tumor volume at day 0 is subtracted from the log tumor volume on the subsequent days. This difference vs. time is used to calculate an area under the curve (AUC) for each animal using the trapezoid rule. […] The synergy score for the combination of agents A and B is defined as
(§4) 100*(mean(AUCAB)−mean(AUCA)−mean(AUCB)+mean(AUCctl))/mean(AUCctl):
(§5) where AUCAB, AUCA, AUCB, and AUCctl are the AUC values for animals in the combination group, the A group, the B group, and the control group, respectively. The standard error of the synergy score is computed based on the variation in the AUC values among the animals. […] If the P-value is above 0.05, then the combination is considered to be additive. If the P-value is below 0.05, and the synergy score is less than zero, then the combination is considered to be synergistic.

Assay [2] concerns CTG-0012 human primary triple negative breast cancer model. As to the kind of experiment: CTG-0012 xenograft model, Compound 1 and paclitaxel. The note with it: for Tumor Volume Day 21: in mm³ (unit assumed). It counts as in vivo, Mus musculus/nu/nu mice. As for the experimental part: Paclitaxel (Bristol-Myers Squibb Company) is formulated in 0.9% saline and administered by intravenous injection (IV) on every 4 days (Q4D) or once weekly (QW) at 10 and 20 mg/kg. […] Tumors were measured twice weekly using vernier calipers.

The test system of assay [3] is PHTX-17C colorectal carcinoma xenograft. It counts as in vivo. The note with it: for Tumor Volume Day 21: in mm³ (unit assumed).
From the text: The PHTX-17C colorectal carcinoma xenograft model was established from a patient-derived tumor collected during surgery from a person with moderately differentiated adenocarcinoma.PHTX-17C tumor fragments (approximately 2×2×3 mm^3) were implanted into the subcutaneous space in the right dorsal flank of female nude mice (age 5-7 weeks, Balb/c Nude Mice, Shanghai SINO-British SIPPR/BK Lab Animal Ltd, Shanghai, China) using a 13-gauge trocar. When the mean tumor volume reached approximately 185 mm^3, the animals were randomized into 12 treatment groups (n=5/group).
Oxaliplatin (Jiang Su Geng Rui Pharmaceuticals, Inc.) is formulated in 0.9% saline and administered by IP injection once weekly (QW) at 7.5 or 12.5 mg/kg. The once weekly schedule is also described as every 7 days (Q7D).
as §1, §2, §3, §4, §5

Like-named read-outs stand apart in the source and are kept apart here.

The text below walks through data of patent US20180133221A1, “ADMINISTRATION OF UBIQUITIN-ACTIVATING ENZYME INHIBITOR AND CHEMOTHERAPEUTIC AGENTS” (Millennium Pharmaceuticals, Inc., priority 2014, published 2018).

With `NS(=O)(=O)OC[C@H]1C[C@@H](Nc2ccnc3cc(-c4cccc(SC(F)(F)F)c4)nn23)[C@H](O)[C@@H]1O` [Compound 1, ((1R,2R,3S,4R)-2,3-dihydroxy-4-(2-(3-(trifluoromethylthio)phenyl)pyrazolo[1,5-a]pyrimidin-7-ylamino)cyclopentyl)methyl sulfamate], the “Tumor Volume Day 14” value is 857.2 in assay [1] (5 mg/kg Compound 1 BIWx2 IV), 883 in assay [1] (10 mg/kg Compound 1 BIWx2 IV) and 919.2 in assay [1] (15 mg/kg Compound 1 BIWx2 IV). Also, the “anti-tumor activity compared to vehicle control” value in assay [1] (single agent Compound 1 IV at 5, 10 and 15 mg/kg BIW) is on record as “modest anti-tumor activity”; in assay [2] (single agent Compound 1 IV at 6.25, 15, and 20 mg/kg BIW for 3 weeks) it was “modest to strong anti-tumor activity”; in assay [3] (single agent Compound 1 IV at 20, 25, 30 mg/kg BIW), “modest anti-tumor activity”. Also, the “Tumor Volume Day 21” value is reported as 815 in assay [2] (6.25 mg/kg Compound 1 BIWx3 IV); 185 in assay [2] (15 mg/kg Compound 1 BIWx3 IV); 47.4 in assay [2] (20 mg/kg Compound 1 BIWx3 IV); 1875.6 in assay [3] (20 mg/kg Compound 1 BIWx3 IV); 2159.3 in assay [3] (25 mg/kg Compound 1 BIWx3 IV); 1612.7 in assay [3] (30 mg/kg Compound 1 BIWx3 IV).
